For orientation: IC50 means the point on the concentration scale where inhibition reaches its midpoint. Higher therefore signals weaker potency. The term inhibition denotes the relative decrease from the control value, in per cent. The low end stands for a weak effect, the high end for a strong effect.

Here are results for two compounds from patent US5233050A, “Antimigraine alkyl indole” (Merck & Co., Inc., priority 1992, dated 1993).

One test concerns 5-HT1D. The experiment in a line: 5-HT1D radioligand binding assay (3H-5HT, crude pig striatal membranes). As to conditions: for % inhibition of binding, 5-HT1D: mean of triplicates. On the procedure:
(§1) 5-HT1D radioligand binding assay was carried out according to Heuring and Peroutka (Heuring, R. E., and Peroutka, S. J., J. Neurosci., 7:894-903, 1987) with slight modifications as follows. Polypropylene tubes containing ^3 H-5HT (2 nM), cyanopindolol (100 nM), mesulergine (100 nM) and crude pig striatal membranes (10 mg wet weight per tube) in a final assay volume of 1 ml were used. All reagents and tissues were made up in […] Tris. HCl containing 0.1% ascorbate, 10 μM pargyline and 4 mM CaCl2 (pH 7.7 at room temperature). 5-HT (10 μM) was used to define non-specific binding. The incubation was initiated by the addition of membranes and carried out for 30 minutes at 37° C. Following incubation, membranes were rapidly filtered under vacuum through Whatmann GF/B filters using a Brandel Cell Harvester, followed by 2×3 ml washes with 50 mM Tris. HCl (pH 7.7 at room temperature). Bound radioactivity was determined by liquid scintillation spectrometry. 5-HT1A and 5-HT2 radioligand binding assays were performed according to Hall, et al., J. Neurochem., 44, 1685-1696, 1985 and Titeler, et al., Eur. J. Pharmacol., 117, 145-146, 1987, respectively.

A further test deals with T1, 5-HT1A (Rattus norvegicus, UniProt P19327).
T1 construct: from tissue
T1 sequence (P19327 1-422): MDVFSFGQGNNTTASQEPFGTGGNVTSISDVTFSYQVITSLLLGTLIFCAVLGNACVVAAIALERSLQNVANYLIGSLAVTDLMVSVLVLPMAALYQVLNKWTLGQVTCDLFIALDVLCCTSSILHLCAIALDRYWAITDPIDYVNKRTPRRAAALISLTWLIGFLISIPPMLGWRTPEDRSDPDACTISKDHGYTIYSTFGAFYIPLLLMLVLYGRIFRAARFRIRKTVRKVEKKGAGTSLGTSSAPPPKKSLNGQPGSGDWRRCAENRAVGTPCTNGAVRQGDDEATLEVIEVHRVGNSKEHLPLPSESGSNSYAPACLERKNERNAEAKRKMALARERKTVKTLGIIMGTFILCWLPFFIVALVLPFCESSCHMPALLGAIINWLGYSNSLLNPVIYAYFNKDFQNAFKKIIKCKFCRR
As to the kind of experiment: 5-HT1A radioligand binding assay. On the procedure:
as §1

The next test deals with T2, 5-HT2 (Rattus norvegicus, UniProt P14842).
T2 construct: from tissue; host or cells: rat cortical membranes (inferred from the cited Titeler et al)
T2 sequence (P14842 whole entry): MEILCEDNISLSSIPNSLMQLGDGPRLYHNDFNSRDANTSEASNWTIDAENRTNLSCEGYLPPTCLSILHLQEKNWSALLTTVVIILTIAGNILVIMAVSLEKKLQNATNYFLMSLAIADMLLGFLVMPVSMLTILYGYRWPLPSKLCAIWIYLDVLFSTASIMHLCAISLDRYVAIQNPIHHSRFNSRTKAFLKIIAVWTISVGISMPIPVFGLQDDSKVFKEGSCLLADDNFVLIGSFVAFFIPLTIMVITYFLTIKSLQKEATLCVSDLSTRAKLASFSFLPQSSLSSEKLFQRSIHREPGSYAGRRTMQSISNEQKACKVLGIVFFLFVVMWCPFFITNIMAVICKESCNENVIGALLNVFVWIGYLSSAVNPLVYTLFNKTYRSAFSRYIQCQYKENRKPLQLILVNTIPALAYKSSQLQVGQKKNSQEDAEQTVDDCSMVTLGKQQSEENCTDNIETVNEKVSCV
As to the kind of experiment: 5-HT2 radioligand binding assay. As to conditions: mean of triplicates. The protocol:
as §1

As for `CNS(=O)(=O)Cc1ccc2[nH]cc(CCN(C)C)c2c1` [sumatriptan, reference compound], the “rank order of affinity for these subtypes” value in the test on 5-HT1D (5-HT1D, 5-HT1A, 5-HT2, for comparison) is listed as 5-HT1D >5-HT1A >5-HT2. Further, on 5-HT1D (for comparison), the “pIC50, 5-HT1D” value is recorded as 7.7. Further, the half-inhibitory concentration (IC50) on 5-HT1A is 501 nM.
As for `C=CC(C)(C)n1cc(CN(C)C)c2ccccc21` [Compound I, 1-(1,1-dimethylallyl)-3-dimethylaminomethylindole], the “% inhibition of binding, 5-HT1D” value with 5-HT1D (4.1 μM) is reported as 44%; in the test on 5-HT1D (41 μM) it was 81%. For the same compound, the inhibition at 4.1 µM at 5-HT1A (4.1 μM, mean of triplicates) worked out at 20%; at 5-HT2 (4.1 μM), 42%. In addition, the inhibition at 41 µM was 62% on 5-HT1A (41 μM, mean of triplicates) and 86% at 5-HT2 (41 μM). For the same compound, the “affinity for 5-HT1A relative to 5-HT1D and 5-HT2” value at 5-HT1A (5-HT1A versus 5-HT1D and 5-HT2) was “less affinity for 5-HT1A than for 5-HT1D and 5-HT2 receptor subtypes”.
